Columns and labels:
[1] = Acid/base stability by NMR; details: diethylamine in deuterated chloroform; directly afterwards and after 20 hours
Method: Diethylamine (2 ml) was added to a solution of 4′-aziridinoterpyridine (5 mg) in deuterated chloroform in a NMR tube.
NMR spectra were recorded immediately and after 1, 2, 4 and 24 hours.

[2] = system: DNA; experiment: Fluorescence spectroscopy, ethidium bromide displacement; assay type: binding
Description: (§1) The double positive charge on 4-picoline-2,2′:6′,2″-terpyridine-platinum(II), together with the intercalative binding mode is probably responsible for the large binding constant.

[3] = system: CH1dox^R human ovarian carcinoma cell line (doxorubicin resistant); experiment: 96 h growth inhibition, sulforhodamine B assay, CH1doxR; assay type: cell-based; details: for IC50: 96 h exposure, growth inhibition; for RF resistance factor: IC50 resistant line/IC50 parent line: CH1dox^R / CH1
[4] = system: CH1cis^R human ovarian carcinoma cell line (cisplatin resistant); experiment: 96 h growth inhibition, sulforhodamine B assay, CH1cisR; assay type: cell-based; details: for IC50: 96 h exposure, growth inhibition, v = variable (mean); for RF resistance factor: IC50 resistant line/IC50 parent line: CH1cis^R / CH1
[5] = system: SKOV3 human ovarian carcinoma cell line; experiment: 96 h growth inhibition, sulforhodamine B assay, SKOV3; assay type: cell-based; details: 96 h exposure, v = variable (mean)
[6] = system: A2780cis^R human ovarian carcinoma cell line (cisplatin resistant); experiment: 96 h growth inhibition, sulforhodamine B assay, A2780cisR; assay type: cell-based; details: for IC50: 96 h exposure, growth inhibition, v = variable (mean)
[7] = Single intraperitoneal injection toxicity in tumour-bearing mice (ADJ/PC6); assay type: in vivo
Method: Compound (A) was also administered as a single intraperitoneal injection in water to mice bearing subcutaneously implanted tumours e.g. ADJ/PC6 (according to the standard protocol for evaluating platinum complexes).

[8] = system: A2780 human ovarian carcinoma cell line; experiment: 96 h growth inhibition, sulforhodamine B assay, A2780; assay type: cell-based; details: 96 h exposure, v = variable (mean)
[9] = system: CH1 human ovarian carcinoma cell line; experiment: 96 h growth inhibition, sulforhodamine B assay, CH1; assay type: cell-based; details: 96 h exposure, v = variable (mean)
[10] = system: DNA; experiment: Ligation assay (DNA unwinding); assay type: binding
Description: as §1

[11] = system: CHl human ovarian carcinoma subcutaneously implanted xenograph; experiment: CH1 human ovarian carcinoma xenograft in vivo
Method: In view of the in vitro results, compound (A) was investigated in vivo using the CHl human ovarian carcinoma subcutaneously implanted xenograph. The compound was administered intraperitoneally at weekly intervals for 4 weeks. Two dose levels were used; 30 and 60 mg/kg. Tumours were approximately 6-8 mm maximum diameter at the beginning of treatment. […] Two endpoints were determined, the 28 day T/C (the ratio of Treated versus Control volumes at day 28 post initial treatment) and the growth delay (GD: the difference in time taken for Treated versus Control groups to double in volume).
At the lower dose there was a growth delay (GD) 83.1. […] It seems likely that by using a still lower and more frequent drug schedule (e.g. daily) greater control over tumour growth could be achieved.

[12] = system: polyfd(A-T)2); experiment: Circular dichroism equilibrium binding
Description: as §1

[13] = system: T. brucei (S427) bloodstream trypomastigotes; experiment: Trypanosoma brucei bloodstream trypomastigote culture; assay type: cell-based
[14] = system: T. cruzi (MHOM/BR/00/Y); experiment: Trypanosoma cruzi in mouse peritoneal macrophages; assay type: cell-based
Method: Trypanosoma cruzi: […] Drug activity was determined from the % of infected macrophages in treated cultures. Nifurtimox was used as the positive control.

[15] = system: calf-thymus (ct)-DNA; details: literature [1]-[3]; cited from earlier work
[16] = deuterated water; NMR immediately, 1, 2, 17 hours, one and two weeks
Method: A solution of (4-picoline) (4′-aziridinoterpyridine) platinum (II) tetrafluoroborate in deuterated water was prepared. NMR spectra were recorded immediately, after 1, 2 and 17 hours, then after one and two weeks.

**Q.** Which stability to base [1] does the source give for `c1ccc(-c2cc(N3CC3)cc(-c3ccccn3)n2)nc1` [4′-aziridinoterpyridine, 4′-Aziridino-2,2′:6′,2″-Terpyridine] here?
**A.** Its stability to base is “No change in the NMR spectrum”.

**Q.** Which “displacement of ethidium bromide bound to DNA” value [2] does the source give for `Cc1ccncc1.F[B-](F)(F)F.F[B-](F)(F)F.[Pt+2].c1ccc(-c2cccc(-c3ccccn3)n2)nc1` [A, 4-picoline-2,2′:6′:2″-terpyridine-platinum(II) tetrafluoroborate] here?
**A.** The value was “displaces ethidium bromide bound to DNA”.

**Q.** And the IC50 [3]?
**A.** The IC50 was 4.4 µM.

**Q.** What about the “RF resistance factor: IC50 resistant line/IC50 parent line” value (shortened to “RF resistance factor”) [3] of the same compound?
**A.** Its value is 0.3.

**Q.** And the IC50 [4]?
**A.** The IC50 was 11 µM.

**Q.** What about the “RF resistance factor” value [4] of the same compound?
**A.** Its value is 0.8.

**Q.** What about the IC50 [5] of the same compound?
**A.** The IC50 was 20 µM.

**Q.** And the IC50 [6]?
**A.** Its IC50 is > 100 µM.

**Q.** What about the “toxicity, single intraperitoneal injection” value ([7]; 50 mg/kg in water) of the same compound?
**A.** Its value is “no toxic affect”.

**Q.** What about the “toxicity, single intraperitoneal injection” value ([7]; 100 mg/kg in water) of the same compound?
**A.** The value was “toxic”.

**Q.** And the LD50 ([7]; single intraperitoneal injection)?
**A.** The LD50 was “approximately 70 mg/kg”.

**Q.** What about the IC50 [8] of the same compound?
**A.** Its IC50 is 17 µM.

**Q.** And the IC50 [9]?
**A.** The IC50 was 14 µM.

**Q.** What about the “DNA unwinding / intercalation in ligation assay” value [10] of the same compound?
**A.** Its value is “unwind and so intercalate into DNA”.

**Q.** What about the “growth delay (GD)” value ([11]; 30 mg/kg (lower dose) intraperitoneally, weekly for 4 weeks) of the same compound?
**A.** Its value is 83.1.

**Q.** And the “local peritoneal organ damage” value ([11]; 60 mg/kg (higher dose) i.p. weekly for 4 weeks)?
**A.** The value was “evidence, of local peritoneal organ damage”.

**Q.** And the “deaths due to drug toxicity” value ([11]; 30 and 60 mg/kg i.p. weekly for 4 weeks)?
**A.** Its value is “no deaths due to drug toxicity”.

**Q.** And the “effect on tumour growth (Relative Tumour Volume)” value ([11]; 30 and 60 mg/kg i.p. weekly for 4 weeks, especially at the lower dose)?
**A.** The value was “induces a growth inhibitory effect”.

**Q.** What about the “equilibrium binding constant, second binding mode” value ([12]; site size of about 2 base pairs) of the same compound?
**A.** Its value is “about 1×10^6 M^−1”.

**Q.** And the “equilibrium binding constant, most stable binding mode” value ([12]; site size of about 4 base pairs)?
**A.** The value was “approximately 2×10^7 M^−1”.

**Q.** What about the “% Inhibition, Trypanosoma brucei” value ([13]; 0.03 μM) of the same compound?
**A.** Its value is 83.3%.

**Q.** And the “% Inhibition, Trypanosoma brucei” value ([13]; 0.1 μM)?
**A.** Its value is 100%.

**Q.** What about the “% Inhibition, Trypanosoma brucei” value ([13]; 0.3 μM) of the same compound?
**A.** The value was 100%.

**Q.** What about the “% Inhibition, Trypanosoma brucei” value ([13]; 1 μM) of the same compound?
**A.** The value was 100%.

**Q.** What about the “% Inhibition, Trypanosoma brucei” value ([13]; 3 μM) of the same compound?
**A.** Its value is 100%.

**Q.** And the “% Inhibition, Trypanosoma brucei” value ([13]; 10 μM)?
**A.** Its value is 100%.

**Q.** And the “% Inhibition, Trypanosoma brucei” value ([13]; 30 μM)?
**A.** The value was 100%.

**Q.** What about the “% Inhibition, Trypanosoma cruzi” value ([14]; 30 μM) of the same compound?
**A.** Its value is 100%.

**Q.** Which IC50 [3] does the source give for `[Cl-].[Cl-].[Pt+2].c1ccc(-c2cccc(-c3ccccn3)n2)nc1` [Compound A13, chloro(2,2′:6′,2″-terpyridine)platinum(II) chloride] here?
**A.** The IC50 was 3.75 µM.

**Q.** And the “RF resistance factor” value [3]?
**A.** The value was 0.6.

**Q.** What about the IC50 [4] of the same compound?
**A.** Its IC50 is 6.4 µM.

**Q.** What about the “RF resistance factor” value [4] of the same compound?
**A.** Its value is 1.

**Q.** And the IC50 [5]?
**A.** Its IC50 is 19.5 µM.

**Q.** And the IC50 [6]?
**A.** Its IC50 is 41 µM.

**Q.** And the “RF resistance factor” value ([6]; A2780cis^R / A2780)?
**A.** The value was 0.8.

**Q.** What about the IC50 [8] of the same compound?
**A.** Its IC50 is 49 µM.

**Q.** What about the IC50 [9] of the same compound?
**A.** The IC50 was 6.6 µM.

**Q.** And the “binding association constant with ct-DNA” value [15]?
**A.** Its value is “essentially the same binding constant”.

**Q.** What about the “% Inhibition, Trypanosoma brucei” value ([13]; 0.1 μM) of the same compound?
**A.** Its value is 26.2%.

**Q.** And the “% Inhibition, Trypanosoma brucei” value ([13]; 0.3 μM)?
**A.** Its value is 100%.

**Q.** And the “% Inhibition, Trypanosoma brucei” value ([13]; 1 μM)?
**A.** The value was 100%.

**Q.** What about the “% Inhibition, Trypanosoma brucei” value ([13]; 3 μM) of the same compound?
**A.** Its value is 100%.

**Q.** What about the “% Inhibition, Trypanosoma brucei” value ([13]; 10 μM) of the same compound?
**A.** The value was 100%.

**Q.** And the “% Inhibition, Trypanosoma brucei” value ([13]; 30 μM)?
**A.** The value was 100%.

**Q.** What about the “% Inhibition, Trypanosoma cruzi” value ([14]; 1 μM) of the same compound?
**A.** The value was 52.0%.

**Q.** What about the “% Inhibition, Trypanosoma cruzi” value ([14]; 3 μM) of the same compound?
**A.** Its value is 76.0%.

**Q.** And the “% Inhibition, Trypanosoma cruzi” value ([14]; 10 μM)?
**A.** The value was 99.0%.

**Q.** And the “% Inhibition, Trypanosoma cruzi” value ([14]; 30 μM)?
**A.** The value was 99.3%.

**Q.** Which IC50 [3] does the source give for `Cc1ccncc1.F[B-](F)(F)F.F[B-](F)(F)F.[Pt+2].c1ccc(-c2cc(N3CC3)cc(-c3ccccn3)n2)nc1` [T, (4-Picoline)(4′-Aziridino-2,2′:6′,2″-Terpyridine) Platinum (II) Tetra-fluoroborate] here?
**A.** The IC50 was 4.2 µM.

**Q.** And the IC50 [4]?
**A.** Its IC50 is 3.7 µM.

**Q.** What about the IC50 [5] of the same compound?
**A.** Its IC50 is 19 µM.

**Q.** What about the IC50 [6] of the same compound?
**A.** Its IC50 is 20 µM.

**Q.** And the “stability in aqueous solution” value [16]?
**A.** Its value is “stable to nucleophilic attack by water under neutral conditions”.

**Q.** And the IC50 [8]?
**A.** Its IC50 is 7.7 µM.

**Q.** And the IC50 [9]?
**A.** The IC50 was 4.6 µM.

**Q.** And the “% Inhibition, Trypanosoma brucei” value ([13]; 0.1 μM)?
**A.** Its value is 54.2%.

**Q.** And the “% Inhibition, Trypanosoma brucei” value ([13]; 0.3 μM)?
**A.** Its value is 78.9%.

**Q.** What about the “% Inhibition, Trypanosoma brucei” value ([13]; 1 μM) of the same compound?
**A.** Its value is 100%.

**Q.** And the “% Inhibition, Trypanosoma brucei” value ([13]; 3 μM)?
**A.** Its value is 100%.

**Q.** What about the “% Inhibition, Trypanosoma brucei” value ([13]; 10 μM) of the same compound?
**A.** The value was 100%.

**Q.** What about the “% Inhibition, Trypanosoma brucei” value ([13]; 30 μM) of the same compound?
**A.** Its value is 100%.

**Q.** What about the “% Inhibition, Trypanosoma cruzi” value ([14]; 1 μM) of the same compound?
**A.** Its value is 0%.

**Q.** And the “% Inhibition, Trypanosoma cruzi” value ([14]; 3 μM)?
**A.** The value was 0%.

**Q.** And the “% Inhibition, Trypanosoma cruzi” value ([14]; 10 μM)?
**A.** The value was 0%.

**Q.** What about the “% Inhibition, Trypanosoma cruzi” value ([14]; 30 μM) of the same compound?
**A.** Its value is 0%.

**Q.** Which “binding association constant with ct-DNA” value [15] does the source give for “hydroxyethanethiol-2,2′:6′,2″-terpyridine-platinum(II) [1,R═SCH2CH2OH, reference compound]” here?
**A.** The value was 83000 M⁻¹.
